Laboratory results reported in ChEMBL document CHEMBL4406812, “Synthesis of quinones with highlighted biological applications: A critical update on the strategies towards bioactive compounds with emphasis on lapachones” (Eur J Med Chem, 2019).
≈ marks a conversion by molar mass, not a printed value.

Experiments:
L02 = test: Cytotoxicity against human LO2 cells assessed as reduction in cell viability after 48 hrs by MTT assay; type: functional, cell-based; conditions: L02, 48 h
HepG2 = test: Cytotoxicity against human HepG2 cells assessed as reduction in cell viability after 48 hrs by MTT assay; type: functional, cell-based; conditions: HepG2, 48 h
Trypanosoma cruzi [1] = test: Anti-parasitic activity against Trypanosoma cruzi; type: functional, organism-based
HL-60 [2] = test: Cytotoxicity against human HL60 cells assessed as reduction in cell viability after 22 hrs by MTS assay; type: functional, cell-based; conditions: HL-60, 22 h
Trypanosoma cruzi [3] = test: Potency index, ratio of beta-lapachone IC50 to compound IC50 for Trypanosoma cruzi after 24 hrs; type: functional, organism-based
[4] = Selectivity index, ratio of CC50 for monkey LLC-MK2 cells to IC50 for Trypanosoma cruzi Y strain bloodstream trypomastigotes; type: toxicity; conditions: read-out: Ratio IC50
Trypanosoma cruzi [5] = test: Trypanocidal activity against Trypanosoma cruzi Y strain bloodstream trypomastigotes isolated from infected Swiss mouse infected with monkey LLC-MK2 cells after 5 days by fluorescence spectrophotometric analysis; type: functional, organism-based; conditions: LLC-MK2, 120 h
[6] = tested on: Mycobacterium tuberculosis; test: Antimycobacterial activity against Mycobacterium tuberculosis H37Rv; type: functional
HL-60 [7] = test: Anticancer activity against human HL60 cells; type: functional, cell-based
Trypanosoma cruzi [8] = test: Anti-parasitic activity against amastigote form of Trypanosoma cruzi after 24 hrs; type: functional, organism-based
Trypanosoma cruzi [9] = test: Trypanocidal activity against Trypanosoma cruzi Y strain bloodstream trypomastigotes after 24 hrs; type: functional, organism-based
MDA-MB-435 [10] = test: Cytotoxicity against human MDA-MB-435 cells assessed as reduction in cell viability after 72 hrs by MTT assay; type: functional, cell-based; conditions: MDA-MB-435, 72 h
NCI-H358 = test: Cytotoxicity against human NCI-H358 cells assessed as reduction in cell viability after 72 hrs by MTT assay; type: functional, cell-based; conditions: NCI-H358, 72 h
SW-620 = test: Cytotoxicity against human SW620 cells assessed as reduction in cell viability after 72 hrs by MTT assay; type: functional, cell-based; conditions: SW-620, 72 h
Hs-578T [11] = test: Cytotoxicity against human Hs 578T cells assessed as reduction in cell viability after 72 hrs by MTT assay; type: functional, cell-based
Hs-578T [12] = test: Cytotoxicity against human Hs578T cells assessed as reduction in cell viability after 72 hrs by MTT assay; type: functional, cell-based
SF-295 [13] = test: Cytotoxicity against human SF295 cells assessed as reduction in cell viability after 72 hrs by MTT assay; type: functional, cell-based; conditions: SF-295, 72 h
Trypanosoma cruzi [14] = test: Anti-parasitic activity against trypomastigotes form of Trypanosoma cruzi after 24 hrs; type: functional, organism-based
MCF7 = test: Anticancer activity against human MCF7 cells; type: functional, cell-based
LNCaP = test: Anticancer activity against human LNCAP cells after 72 to 102 hrs by MTT assay; type: functional, cell-based
PC-3 = test: Anticancer activity against human PC3 cells after 72 to 102 hrs by MTT assay; type: functional, cell-based
HL-60 [15] = test: Anticancer activity against human HL60 cells by MTT assay; type: functional, cell-based
SF-295 [16] = test: Anticancer activity against human SF295 cells by MTT assay; type: functional, cell-based
OVCAR-8 = test: Anticancer activity against human OVCAR8 cells by MTT assay; type: functional, cell-based
HCT-116 = test: Anticancer activity against human HCT116 cells by MTT assay; type: functional, cell-based
Vero = test: Cytotoxicity against African green monkey Vero cells assessed as reduction in cell viability after 48 hrs by MTT assay; type: cell-based; conditions: Chlorocebus sabaeus
KB = test: Cytotoxicity against human KB cells assessed as reduction in cell viability after 48 hrs by MTT assay; type: functional, cell-based
HeLa = test: Cytotoxicity against human HeLa cells assessed as reduction in cell viability after 48 hrs by MTT assay; type: functional, cell-based
HCT-8 = test: Anticancer activity against human HCT8 cells; type: functional, cell-based
MDA-MB-435 [17] = test: Anticancer activity against human MDA-MB-435 cells; type: functional, cell-based
SF-295 [18] = test: Anticancer activity against human SF295 cells; type: functional, cell-based
PBMC = test: Cytotoxicity against human PBMC; type: cell-based

Nc1nnn[nH]1
IC50 (L02): 2900 to 36300 nM | IC50 (HepG2): 2900 to 36300 nM

O=C1C(Br)=C(Br)C(=O)c2c(I)cccc21
IC50 (Trypanosoma cruzi [1]): 1400 nM

O=C1C2=C(S[C@@H]3OC[C@@H](O)[C@H](O)[C@H]3O2)C(=O)c2ccccc21
IC50 (HL-60 [2]): 1000 nM

CC1(C)CCc2c(c3ccccc3c3nc4cc(Nc5ccccc5)/c(=N/c5ccccc5)cc-4n(-c4ccccc4)c23)O1
Ratio IC50 (Trypanosoma cruzi [3]): 61.3

CCCCCCCCC1CC2=C(O1)c1ccccc1C(=O)C2=O (stereo not drawn)
selectivity ratio [4]: 106 | IC50 (Trypanosoma cruzi [5]): 20700 nM

O=C1C(=O)c2ccccc2C2=C1C1(C(=O)Nc3cc(Cl)ccc31)N1NN=NC1=N2 (stereo not drawn)
IC50 (L02): 2900 to 36300 nM | IC50 (HepG2): 2900 to 36300 nM

CC1(C)CCC2=C(O1)c1ccccc1C(=O)C2=O [LAPACHONE]
MIC [6]: 100 µg/mL (≈ 413 µM)

COc1ccc(NC2CC(C)(C)OC3=C2C(=O)c2ccccc2C3=O)cc1 (stereo not drawn)
IC50 (HL-60 [7]): 70 nM

O=C1C(=O)c2ccccc2C2=C1C1(C(=O)Nc3ccccc31)N1NN=NC1=N2 (stereo not drawn)
IC50 (L02): 2900 to 36300 nM | IC50 (HepG2): 2900 to 36300 nM

Cc1cc(I)c2c(c1)C(=O)C=CC2=O
IC50 (Trypanosoma cruzi [1]): 500 nM

COc1ccc2c(c1)NC(=O)C21C2=C(N=C3N=NNN31)c1ccccc1C(=O)C2=O (stereo not drawn)
IC50 (L02): 2900 to 36300 nM | IC50 (HepG2): 2900 to 36300 nM

CCCCCCCCCCC1CC2=C(O1)c1ccccc1C(=O)C2=O (stereo not drawn)
selectivity ratio [4]: 36.3 | IC50 (Trypanosoma cruzi [5]): 46800 nM

O=C1C(=O)c2ccccc2C2=C1C1(C(=O)N(c3ccccc3)c3ccccc31)N1NN=NC1=N2 (stereo not drawn)
IC50 (L02): 2900 to 36300 nM | IC50 (HepG2): 2900 to 36300 nM

O=C(Cn1ccnc1[N+](=O)[O-])NCc1ccccc1 [BENZNIDAZOLE]
IC50 (Trypanosoma cruzi [8]): 3300 nM | selectivity ratio [4]: 16.8 | IC50 (Trypanosoma cruzi [9]): 9680 nM | IC50 (Trypanosoma cruzi [5]): 19900 nM

CC1(C)OC2=C(C(=O)C(=O)c3ccccc32)C1n1cc(-c2ccc(Nc3ccccn3)c3nsnc23)nn1 (stereo not drawn)
IC50 (MDA-MB-435 [10]): 590 nM | IC50 (NCI-H358): 700 nM | IC50 (SW-620): 550 nM | IC50 (Hs-578T [11]): 590 nM | IC50 (Hs-578T [12]): 570 nM | IC50 (SF-295 [13]): 740 nM

COc1ccc(Sc2cccc3c2C(=O)C=CC3=O)cc1
IC50 (Trypanosoma cruzi [14]): 7600 nM

CC1(C)OC2=C(C(=O)C(=O)c3ccccc32)C1CO (stereo not drawn)
IC50 (MCF7): 460 nM

O=C1c2ccccc2C(=O)c2oc(-c3cccc(Cl)c3)nc21
IC50 (LNCaP): 30 nM | IC50 (PC-3): 80 nM

Cc1ccc2c(c1)C1(C(=O)N2)C2=C(N=C3N=NNN31)c1ccccc1C(=O)C2=O (stereo not drawn)
IC50 (L02): 2900 to 36300 nM | IC50 (HepG2): 2900 to 36300 nM

CC1(C)O[C@@H]2O[C@@H](COC3C4=C(OC3(C)C)c3ccccc3C(=O)C4=O)[C@H]3OC(C)(C)O[C@H]3[C@@H]2O1 (stereo partly drawn)
IC50 (HL-60 [15]): 230 nM | IC50 (SF-295 [16]): 230 nM | IC50 (OVCAR-8): 700 nM | IC50 (HCT-116): 350 nM

O=C1C(=O)c2ccccc2C2=C1CCCO2
IC50 (Vero): 1000 nM | IC50 (LNCaP): 2760 nM | IC50 (KB): 3200 nM | IC50 (HeLa): 900 nM | IC50 (HepG2): 900 nM

CC1(C)CC(Nc2ccc(Cl)cc2)C2=C(O1)C(=O)c1ccccc1C2=O (stereo not drawn)
IC50 (HL-60 [7]): 70 to 370 nM | IC50 (HCT-8): 70 to 370 nM | IC50 (MDA-MB-435 [17]): 70 to 370 nM | IC50 (SF-295 [18]): 70 to 370 nM | IC50 (PBMC): 70 to 370 nM

CC1(C)O[C@H]2O[C@H](COC3C4=C(OC3(C)C)c3ccccc3C(=O)C4=O)[C@@H](OCc3ccccc3)[C@H]2O1 (stereo partly drawn)
IC50 (HL-60 [15]): 160 nM | IC50 (SF-295 [16]): 340 nM | IC50 (OVCAR-8): 890 nM | IC50 (HCT-116): 510 nM

O=C1C(=O)c2ccccc2C2=C1C1(C(=O)Nc3ccc(Br)cc31)N1NN=NC1=N2 (stereo not drawn)
IC50 (L02): 2900 to 36300 nM | IC50 (HepG2): 2900 to 36300 nM

O=C1C(=O)c2ccccc2C2=C1C1(C(=O)Nc3ccc(Cl)cc31)N1NN=NC1=N2 (stereo not drawn)
IC50 (L02): 2900 to 36300 nM | IC50 (HepG2): 2900 to 36300 nM
